From patent publication US8536221B2, “Amide derivatives as positive allosteric modulators and methods of use thereof” (AbbVie Inc., priority 2008, dated 2013)

Key:
α7 NNRs = α7 NNRs (Homo sapiens, UniProt P36544); conditions: IMR-32 cells
Description: (ii) High-Throughput Calcium Flux Assays Using Cells Expressing Endogenous α7 NNRs
As such, PAMs and nicotinic acetylcholine receptor agonists can be identified by using IMR-32 cells that endogenously express various nicotinic receptors including α7 NNRs. […] Accordingly, allosteric modulator compounds described herein can be identified using a fluorescence-based throughput functional assay using cell lines such as IMR-32 neuroblastoma or primary dissociated neurons. […] Any suitable selective α7 agonist can be used.
IMR-32 neuroblastoma cells (ATCC) were grown to confluency in 162 cm^2 tissue culture flasks in minimum essential media supplemented with 10% FBS and 1 mM sodium pyruvate, 0.1 mM non-essential amino acids and 1% antibiotic-antimycotic. […] Calcium flux was measured using a calcium-3 assay kit (Molecular Devices, Sunnyvale, Calif.) or fluo-4. […] Fluorescence measurements were read simultaneously from all the wells by a Fluorometric Imaging Plate Reader (FLIPR) at an excitation wavelength of 480 nm and an emission wavelength of 520 nm. Baseline fluorescence was measured for the first 10 seconds at which 50 μL of 3× concentrations of modulator/test compounds were added to the cell plate and incubated for three to five minutes. The fluorescence intensity was captured every second for the first 1 minute followed by every 2-5 seconds for an additional two to four minutes. […]

[1] = test system: formalin-induced nociceptive behavior in mice; assay: Formalin-induced persistent nociceptive behavior assay; assay type: in vivo; conditions: 20-45 minutes post formalin injection, 10 mg/kg subcutaneously 10 minutes prior to formalin, versus vehicle
Protocol: FIG. 3 is a graphical representation of nocifensive response (licking duration) following treatment with vehicle or a PAM (Example 6) followed by exposure to formalin in mice. […] In Phase II (20-45 minutes post formalin injection) a significant reduction (55%) in licking behavior was observed, indicative of pain relief in this time period.
(iv) Formalin-Induced Persistent Nociceptive Behavior Assay
Nociception was assessed using the formalin test. The mice were placed in open plexiglass observation chambers for 30 minutes to allow them to acclimate to their surroundings; then they were removed for formalin administration. Mice were gently restrained while the dorsum of the hind paw was injected with 20 μL of 2.5% formalin into the plantar surface of the right hind paw with a 30-gauge needle. The animals were returned to the chambers and nociceptive behavior was observed immediately after formalin injection. Mirrors were placed in each chamber to enable unhindered observation. Nociceptive behavior was quantified as the time licking the injected paw for continuous 5 minutes (phase I) and 20-45 minutes (phase II), following formalin injection. Formalin-induced flinching/licking behavior was biphasic. The initial acute phase (phase I, 0-5 minutes) was followed by a relatively short quiescent period, which was then followed by a prolonged tonic response (phase II, 20-45 minutes).

human α7 NNR = biological target: T1, human α7 NNR (Homo sapiens, UniProt P36544); assay: Two-electrode voltage-clamp in Xenopus laevis oocytes, potentiation of ACh-evoked α7 currents; assay type: cell-based; conditions: for degree of potentiation: 0.1 mM ACh-evoked α7 currents, normalized to reference PAM at 10 μM taken as 100%, submaximum ACh without PAM as 0%; for EC50: potentiating 0.1 mM ACh-evoked α7 currents in oocytes
T1 construct: expressed in transfected cells; host or cells: Xenopus laevis oocytes injected with cRNA
Protocol: FIG. 2 is a concentration response curve obtained in the same manner for a PAM (Example 10). […] Normalized PAM potentiation is plotted on the Y-axis as a function of the concentration of the test modulator (depicted along the X-axis).
(i) Two-Electrode Voltage-Clamp in Xenopus laevis Oocytes
X. laevis oocytes were prepared for electrophysiological experiments as described in the literature (see for example, Briggs. C. A., et al., Neutropharmacology, 1995, 34: 583-590; Briggs, C. A. et al., Neutropharmacology, 1998, 37: 1095-1102). In brief, three to four lobes from ovaries of female adult X. laevis frogs were removed and defolliculated after treatment with collagenase type IA (2 mg/mL; Sigma) prepared in low-Ca^2+ Barth's solution (90 mM NaCl, 1.0 mM KCl, 0.66 mM NaNO3, 2.4 mM NaHCO3, 10 mM H-IEPES, 2.5 mM sodium pyruvate, 0.82 mM MgCl2, and 0.5% (v/v) penicillin-streptomycin solution, pH=7.55, Sigma) for about 1.5 hours to about 2 hours at about 18° C. under constant agitation to obtain isolated oocytes. The oocytes were injected with about 4 ng to about 6 ng of human α7 NNR cRNA, kept at about 18° C. in a humidified incubator in modified Barth's solution (90 mM NaCl, 1.0 mM KCl, 0.66 mM NaNO3, 2.4 mM NaHCO3, 10 mM HEPES, 2.5 mM sodium pyruvate, 0.74 mM CaCl2, 0.82 mM MgCl2, 0.5% (v/v) penicillin-streptomycin solution, pH 7.55) and used about 2 to 7 days after injection. Responses were measured by two-electrode voltage clamp using a parallel oocyte electrophysiology test station (Abbott, Abbott Park, Ill.) (see for example, Trimbull, J. D., Maslana, E. S., McKenna, D. G., Nemcek, T. A., Niforatos, W., Pan, J. Y., Parihar, A. S., Shieh, C. C., Wilkins, J. A., Briggs, C. A., and Bertrand, D. High throughput electrophysiology using a fully automated, multiplexed recording system, Receptors Channels, 2003, 9: 19-28). During recordings, the oocytes were bathed in Ba^2+—OR2 solution (90 mM NaCl, 2.5 mM KCl, 2.5 mM BaCl2, 1.0 mM MgCl2, 5.0 mM HEPES, and 0.0005 mM atropine, pH 7.4) to prevent activation of Ca^2+-dependent currents and held at −60 mV at room temperature (about 20° C.). Test compounds were given for ˜60 seconds before agonist application and subsequently in the presence of 0.1 mM ACh.

T1 sequence (P36544 23-502): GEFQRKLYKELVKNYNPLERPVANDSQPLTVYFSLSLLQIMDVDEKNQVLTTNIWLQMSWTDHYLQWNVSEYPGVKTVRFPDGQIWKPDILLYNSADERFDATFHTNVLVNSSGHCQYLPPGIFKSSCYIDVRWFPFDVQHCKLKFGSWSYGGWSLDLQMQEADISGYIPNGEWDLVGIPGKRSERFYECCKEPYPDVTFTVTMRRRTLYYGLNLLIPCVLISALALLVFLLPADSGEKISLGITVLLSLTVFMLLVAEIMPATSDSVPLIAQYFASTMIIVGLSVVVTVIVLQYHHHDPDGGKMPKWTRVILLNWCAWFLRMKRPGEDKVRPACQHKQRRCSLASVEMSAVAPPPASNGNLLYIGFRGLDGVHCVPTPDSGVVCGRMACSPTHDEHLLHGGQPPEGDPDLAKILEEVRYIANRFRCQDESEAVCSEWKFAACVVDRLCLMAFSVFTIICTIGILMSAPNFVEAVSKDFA
α7 NNRs, sequence (P36544 23-502): as above

degree of potentiation (human α7 NNR) | EC50 (human α7 NNR) | Compound | effect on calcium response elicited by agonist in the presence of allosteric modulator (α7 NNRs) | reduction in licking behavior, Phase II [1]
– | – | CCN1C[C@]2(COC(=O)c3ccccc3N3C(=O)C[C@H](C)C3=O)CC[C@H](OC)[C@@]34[C@@H]5C[C@H]6[C@H](OC)[C@@H]5[C@](O)(C[C@@H]6OC)[C@@](O)([C@@H](OC)[C@H]23)[C@@H]14 [methyllycaconitine] | abolished the response | –
– | – | O=C(NCc1ccc2[nH]ccc2c1)c1ccc(OCC(F)(F)F)nc1 [Example 6, N-(1H-indol-5-ylmethyl)-6-(2,2,2-trifluoroethoxy)nicotinamide] | – | 55%
91% | 210 nM | Cn1ccc2cc(CNC(=O)c3ccc(SC(F)(F)F)cc3)ccc21 [Example 10, N-[(1-methyl-1H-indol-5-yl)methyl]-4-[(trifluoromethyl)thio]benzamide] | – | –
99% | 1100 nM | Cn1ccc2ccc(CNC(=O)c3ccc(SC(F)(F)F)cc3)cc21 [Example 12, N-[(1-methyl-1H-indol-6-yl)methyl]-4-[(trifluoromethyl)thio]benzamide] | – | –
